Converted amounts (≈) assume the structure as drawn. Where two headings read alike, the source gives them in different places.
How the values were obtained:
M. tuberculosis H37Rv [1] = details: closest benzothiazole compounds; cited from earlier work
M. tuberculosis H37Rv [2] = experiment: Antimycobacterial activity: MIC by broth microdilution / Nitrate Reductase Assay; type: cell-based, Mycobacterium tuberculosis; details: lowest concentration showing no colour change (NRA)
AML-12 cell lines = experiment: Cytotoxicity MTT assay on AML-12 cell lines; type: cell-based
Procedure: The potent compounds 3j, 4e, 6a, 6f, 6g, 6i, and 6p were evaluated for cytotoxic effect on AML-12 cell lines using MTT assay, in a 96 well plate format. Cells were incubated in Dulbecco's Modified Eagle's Medium (DMEM) containing 10% fetal calf serum (FCS) with the test material (2-100 μg/ml) for 24 hrs. at 37° C. in CO2 incubator. After the completion of incubation 3-(4,5-dimethylthiazol-2-yl)-2,5-diphenyltetrazolium bromide (MTT) was added and cells were further incubated for 3 h at 37° C. in CO2 incubator. Formation of formazan salt by mitochondrial dehydrogenases, and was determined by Elisa reader at 565 nm (Multiskan Spectrum; Thermo Electron Corporation, USA). The percentage cytotoxicity was calculated with respect to the untreated cells.

M. tuberculosis (H37Rv) = experiment: In vivo efficacy in lungs of infected mice; design: species or system Swiss albino mice; details: 25 mg/kg

| SMILES | MIC (M. tuberculosis H37Rv [1]) | further results |
| --- | --- | --- |
| Clc1ccccc1/C=N/c1nc2ccccc2s1 | 73 µg/mL (≈ 268 µM) |  |
| CC(=NNC1CSC(c2ccc3c(c2)CCC3)=N1)c1ccc(C)cc1 (stereo not drawn) | >6.5 µg/mL |  |
| O=C(Nc1nc2ccc(NC(=O)c3ccc([N+](=O)[O-])o3)cc2s1)c1ccc(Cl)cc1 [Compound 6g, N2-{2-[(4-chlorobenzoyl)amino]-1,3-benzothiazol-6-yl}-5-nitrofuramide] |  | MIC (M. tuberculosis H37Rv [2]): 0.5 µg/mL (≈ 1.13 µM); Cytotoxicity (AML-12 cell lines; AML-12 cell line, MTT, 24 hrs, test material 2-100 μg/ml): >100 µg/mL; Cytotoxicity (result in words) (AML-12 cell lines; AML-12 cell lines, MTT assay): no cytotoxicity; In vivo activity (result in words) (M. tuberculosis (H37Rv); mice, lung): bacteriostatic activities; Decrease of bacterial load in lung with late control (protections) (M. tuberculosis (H37Rv); mice, versus late control): 1.0; Log10 CFU/left Lung (M. tuberculosis (H37Rv); infected female Swiss albino mice, left lung): 6.1 ± 0.48 |
| COC(=O)[C@H](NC(=O)c1cc(COc2ccc3nc(C)sc3c2)on1)c1ccccc1 | 1.9 µg/mL (≈ 4.34 µM) |  |
| COC(=O)C(NC(=O)c1cc(COc2ccc3nc(C)sc3c2)on1)c1ccccc1 (stereo not drawn) | 1.4 µg/mL (≈ 3.2 µM) |  |
| O=[N+]([O-])c1ccc(CSc2nc3ccccc3s2)c([N+](=O)[O-])c1 | 2 µg/mL (≈ 5.76 µM) |  |
| O=[N+]([O-])c1cc(CSc2nc3ccccc3s2)cc([N+](=O)[O-])c1 | 2 µg/mL (≈ 5.76 µM) |  |

Reference: patent publication US9949970B2, “Synthesis of new benzothiazole derivatives as potential anti-tubercular agents” (priority 2010, dated 2018)
